Common to all, as to experiment: DTP human tumour cell line panel, 48 h
For assay [1], the system named is EKVX NSCLC.
The subject of assay [2] is HCT-15 colon.
The test system of assay [3] is OVCAR-4 ovarian.
Assay [4] has as its system K-562 leukemia.
Assay [5] has as its system HT29 colon.
Assay [6] relates to SK-MEL-5 melanoma.
The test system of assay [7] is A498 renal.
For assay [8], the system named is SF-539 CNS.
Assay [9] relates to LOX IMVI melanoma.
In assay [10] the test system is SR leukemia.

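Assay format: 96-well plates, 48-hour exposure. TGI marks complete inhibition of growth.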 Where only a bound is given, the exact number is not on record here.

Consider 15 molecules from PubChem BioAssay (NCI).

A word on the TGI: it is the concentration at which net growth stops. The low end stands for more potent growth arrest, the high end for less potent growth arrest. Take `O=C(CN1C(=O)CC(c2ccccc2)(c2ccccc2)C1=O)N1CCN(CCO)CC1`: the total growth inhibition concentration (TGI) in assay [1], in [2], in [3], in [4], in assay [5] and in assay [6] was over 100 µM in each case. The TGI in assay [7], in assay [8] and in assay [9] was over 100 µM in each case.

Regarding `CCOC(=O)/C=C1/C(CCCOCc2ccccc2)C2CCCC23CC2(CCN13)OCCO2` (stereo not drawn), the TGI in assay [1] is over 100 µM; in [2], 51.5 µM; in assay [3] it was over 100 µM; in assay [4], 63.7 µM; in assay [5] it was 45.4 µM; in [6], 34.8 µM. Further, the TGI worked out at 50.3 µM in assay [7] and 37.9 µM in assay [9].

Turning to `N#Cc1sc2c(c1OC(=O)c1ccc(C(F)(F)F)cc1)c(=O)n(-c1ccccc1)c(=S)n2-c1ccccc1`, the TGI is 70.9 µM in assay [1]; 80.7 µM in [2]; over 100 µM in [3]; over 100 µM in assay [4]; 82.5 µM in assay [5]; 62.2 µM in assay [6]. Moreover, the results for the concentration for total growth inhibition (TGI) in assay [7], in assay [8] and in [9] were 90.2 µM, 59 µM and 59.9 µM, respectively.

As to `Nc1c(S(=O)(=O)c2ccc(Cl)cc2)c2nc3ccccc3nc2n2ccnc12`, the TGI in assay [1] is over 100 µM; in assay [2], over 100 µM; in [3], 33.3 µM; in [4], over 100 µM; in assay [5], over 100 µM; in [6], over 100 µM. Moreover, the concentration for total growth inhibition (TGI) in assay [8] is 36.2 µM.

For the molecule `O=C1NC(O)CCN1C1OC(CO)C(O)C1O` (stereo not drawn), the total growth inhibition concentration (TGI) is over 250 µM in [1]; over 250 µM in assay [2]; over 250 µM in assay [3]; over 250 µM in assay [4]; over 250 µM in assay [5]; over 92 µM in [6]. Besides, the concentration for total growth inhibition (TGI) in assay [7], in assay [8] and in assay [9] was over 250 µM in each case.

On to `C=C(C)[C@H]1C2=CC(C(=O)OC)=C(C[C@H](C(=C)C)[C@@H](O)[C@@H](O)C3=C[C@H]1OC3=O)O2`, for which the concentration for total growth inhibition (TGI) in assay [1], in assay [2], in assay [3], in assay [4], in [5] and in assay [6] was over 100 µM throughout. Moreover, the total growth inhibition concentration (TGI) in assay [7], in assay [8] and in assay [9] was over 100 µM throughout.

Take `CSc1csc(-c2ccc(-c3ccc(-c4cc(SC)cs4)s3)s2)c1`: the concentration for total growth inhibition (TGI) in [1], in assay [2], in assay [3], in [4], in [5] and in assay [6] was over 100 µM throughout. For the same molecule, the concentration for total growth inhibition (TGI) in assay [10], in assay [8] and in [9] was over 100 µM each time.

As for `CC1(C)C=CC(=O)C(O)C(C)(C)C1=O` (stereo not drawn), the TGI in [1], in assay [2], in assay [3], in [4], in assay [5] and in assay [6] was over 100 µM throughout. Also, the TGI in [7], in [8] and in assay [9] was over 100 µM each time.

On to `CN1Cc2c(nc(-c3ccccc3)c[n+]2[O-])N(C)C1`, for which the TGI in [1], in assay [2], in [3], in assay [4], in assay [5] and in assay [6] was over 100 µM each time. For the same molecule, the TGI in assay [7], in assay [8] and in assay [9] was over 100 µM throughout.

Regarding `O=C1N(Cc2ccccc2)C2CSCC2N1Cc1ccccc1` (stereo not drawn), the total growth inhibition concentration (TGI) is 79.3 µM in assay [1]; over 100 µM in assay [3]; over 100 µM in [4]; 38.1 µM in assay [5]; 30.3 µM in assay [6]; 93.6 µM in assay [10]. Further, the concentration for total growth inhibition (TGI) in assay [8] worked out at 76 µM; in assay [9], 93.1 µM.

With `COc1cc(C=O)ccc1O`, the concentration for total growth inhibition (TGI) in [1], in assay [2], in [3], in assay [4], in assay [5] and in assay [6] was over 100 µM in each case. Further, the TGI in [10], in assay [8] and in assay [9] was over 100 µM each time.

`Clc1sc(Cl)c2c1[C@@H](Cl)C[C@@H]2Br`: the total growth inhibition concentration (TGI) in assay [1], in [2], in [3], in assay [4], in [5] and in [6] was over 100 µM each time. Moreover, the TGI is 48.3 µM in assay [10] and over 100 µM in assay [9].

Take `COc1cccc2c1OC(c1cccc3ccccc13)C([N+](=O)[O-])=C2` (stereo not drawn): the concentration for total growth inhibition (TGI) in assay [1] amounted to 10.5 µM; in assay [2], 3.8 µM; in assay [3], 13 µM; in assay [4], 4.19 µM; in [5], 4.5 µM; in assay [6], 2.96 µM. In assay [10], this molecule registered a TGI of over 100 µM.

On to `N#CC(c1ccccc1)N(CCOCCOCCN(C(=O)c1ccccc1)C(C#N)c1ccccc1)C(=O)c1ccccc1` (stereo not drawn), for which the TGI in [1], in assay [2], in assay [3], in assay [4], in assay [5] and in assay [6] was over 100 µM in each case. Also, the TGI in assay [7], in assay [8] and in [9] was over 100 µM throughout.

In the case of `COc1cc(C2c3cc4c(cc3[C@@H](Nc3ccccc3)C3COC(=O)[C@H]23)OCO4)cc(OC)c1O` (stereo partly drawn), the TGI in assay [1] was found to be 8.47 µM; in assay [2], 2.43 µM; in [3] it was 34.6 µM; in assay [4], 9.32 µM; in assay [5], 3.64 µM; in assay [6], 2.66 µM. Besides, the concentration for total growth inhibition (TGI) in assay [7] is 1.65 µM; in assay [8], 1.8 µM; in assay [9] it was 3.38 µM.
